Measured values from patent US9278942B2, “Non-steroidal compounds as androgen receptor modulators” (FLX Discoveries Oy, priority 2011, dated 2016).
Read-outs that look alike come from different tables or passages of the source. Values belong to the compound of their own block, whether it stands above or below them.

What was measured:
[1] = molecular target: T1, human AR (Homo sapiens, UniProt P10275); experiment: Competitive AR binding assay against [3H]-R1881 in transiently transfected COS-1 cells; conditions: compound 13.4 μM, [3H]-R1881 1.34 nM, complete inhibition equals 100%; for inhibition at 13.4 µM: read-out: Inhibition of [3H]-R1881 binding at 1.34 nM ± S.D.
T1 construct: expressed in transfected cells; host or cells: COS-1
T1 sequence (P10275 1-920): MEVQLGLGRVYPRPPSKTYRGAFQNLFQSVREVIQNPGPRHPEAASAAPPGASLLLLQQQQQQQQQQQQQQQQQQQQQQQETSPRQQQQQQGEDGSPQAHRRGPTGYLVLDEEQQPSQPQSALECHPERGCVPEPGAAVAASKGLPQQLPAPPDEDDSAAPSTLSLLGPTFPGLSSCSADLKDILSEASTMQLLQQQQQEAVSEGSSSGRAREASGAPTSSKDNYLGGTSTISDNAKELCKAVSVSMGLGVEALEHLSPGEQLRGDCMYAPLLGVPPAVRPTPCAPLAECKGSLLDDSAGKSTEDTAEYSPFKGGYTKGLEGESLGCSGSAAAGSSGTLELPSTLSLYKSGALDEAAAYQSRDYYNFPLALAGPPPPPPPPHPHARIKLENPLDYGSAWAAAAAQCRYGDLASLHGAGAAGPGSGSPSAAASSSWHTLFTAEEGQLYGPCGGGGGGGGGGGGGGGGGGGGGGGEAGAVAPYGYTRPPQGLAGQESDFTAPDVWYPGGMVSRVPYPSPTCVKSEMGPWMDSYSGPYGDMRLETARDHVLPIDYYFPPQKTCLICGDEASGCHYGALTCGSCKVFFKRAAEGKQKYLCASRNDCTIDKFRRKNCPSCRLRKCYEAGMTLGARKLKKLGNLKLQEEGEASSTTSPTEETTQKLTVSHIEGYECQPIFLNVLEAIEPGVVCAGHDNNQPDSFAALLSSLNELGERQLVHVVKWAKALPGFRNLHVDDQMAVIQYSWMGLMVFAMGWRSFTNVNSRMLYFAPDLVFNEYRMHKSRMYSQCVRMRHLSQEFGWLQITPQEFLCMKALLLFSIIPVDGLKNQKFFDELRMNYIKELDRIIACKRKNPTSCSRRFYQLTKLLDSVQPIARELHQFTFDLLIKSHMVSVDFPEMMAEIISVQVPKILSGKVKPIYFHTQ
Outline: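 COS-1 cells transfected 24 h with human AR vector, then after 36 h exposed 2 h at 37° C to compound at 10000-fold molar excess over 1.34 nM [3H]-R1881. Cell-bound radioactivity counted in triplicate; result given as % inhibition of labelled R1881 binding.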

[2] = molecular target: T1, human AR; experiment: AR antagonism assay: inhibition of transcriptional activation of AR (Probasin-luc reporter, COS-1 cells); format: cell-based; conditions: COS-1, 18 h, compound 10.0 μM; relative luciferase response: 100% for testosterone (no antiandrogenic effect), 0% for complete antagonism; read-out: AR antagonism against 100 nM testosterone ± S.D.
Outline: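 COS-1 cells transfected 24 h with human AR vector, Probasin-luc reporter and β-gal control, then exposed 18 h at 37 °C to 10 μM compound plus 100 nM testosterone. Luciferase read-out normalised to β-galactosidase activity and protein content.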

Compound: Clc1ccc(C2=NOC(Cc3ccccc3)(c3ccccc3)C2)cc1 (centres unmarked) [Example 16, 5-Benzyl-3-(4-chlorophenyl)-5-phenyl-4,5-dihydro-isoxazole]
melting point: 120.3 to 122.1 °C

Compound: COc1ccc(C2=NOC(Cc3ccccc3)(c3ccccc3)C2)cc1 (centres unmarked) [Example 14, 5-Benzyl-3-(4-methoxyphenyl)-5-phenyl-4,5-dihydro-isoxazole]
melting point: 139.3 to 141 °C

Compound: COc1cccc(C2=NOC(Cc3ccccc3)(c3ccccc3)C2)c1 (centres unmarked) [Example 13, 5-Benzyl-5-phenyl-3-(3-methoxyphenyl)-4,5-dihydro-isoxazole]
melting point: 94.4 to 95.2 °C

Compound: COc1ccccc1C1=NOC(Cc2ccccc2)(c2ccccc2)C1 (centres unmarked) [Example 12, 5-Benzyl-3-(2-methoxyphenyl)-5-phenyl-4,5-dihydro-isoxazole]
melting point: 109.3 to 110.2 °C

Compound: N#Cc1ccc(C2=NOC(Cc3ccccc3)(c3ccccc3)C2)cc1 (centres unmarked) [Example 18, 4-(5-Benzyl-5-phenyl-4,5-dihydro-isoxazol-3-yl)-benzonitrile]
melting point: 104.5 to 107 °C

Compound: Oc1ccc(C2=NOC(Cc3ccccc3)(c3ccccc3)C2)cc1 (centres unmarked) [Example 80, 5-Benzyl-3-(4-hydroxyphenyl)-5-phenyl-4,5-dihydro-isoxazole]
melting point: 151.3 to 153.9 °C

Compound: N#Cc1ccc(C2=NOC3CCCCCCC23)cc1C(F)(F)F (centres unmarked) [Example 92ab, 4-(3a,4,5,6,7,8,9,9a-Octahydro-cycloocta[d]isoxazol-3-yl)-2-trifluoromethyl-benzonitrile]
inhibition at 13.4 µM ([1]; Table 2): 85.8 ± 1.3%
remaining activity at 10 µM [2]: 24 ± 1.7%

Results, then the compound that gave them:

inhibition at 13.4 µM ([1]; Table 1): 49.5 ± 4.3%
melting point: 134.3 to 135.2 °C
Compound: Fc1ccccc1C1=NOC(Cc2ccccc2)(c2ccccc2)C1 (centres unmarked) [Example 15ab, 5-Benzyl-3-(2-fluorophenyl)-5-phenyl-4,5-dihydro-isoxazole]

inhibition at 13.4 µM ([1]; Table 1): 63.7 ± 1.5%
melting point: 144.8 to 146.3 °C
Compound: CC1(Cc2ccccc2)CC(c2ccc3ccccc3c2)=NO1 (centres unmarked) [Example 9ab, 5-Benzyl-3-naphthalen-2-yl-5-methyl-4,5-dihydro-isoxazole]

Inhibition of [3H]-R1881 binding at 1.34 nM ± S.D. ([1]; Table 2): 66.3 ± 9.8%
remaining activity at 10 µM [2]: 57.7 ± 9.9%
Compound: Fc1ccc(C2=NOC3CCCCCCC23)cc1C(F)(F)F (centres unmarked) [Example 43a, 3-(4-Fluoro-3-trifluoromethyl-phenyl)-3a,4,5,6,7,8,9,9a-octahydro-cycloocta[d]isoxazole]

inhibition at 13.4 µM ([1]; Table 1): 49.6 ± 2%
melting point: 97.8 to 98.6 °C
Compound: COc1ccc(C2=NOC(C)(Cc3ccccc3)C2)cc1 (centres unmarked) [Example 3ab, 5-Benzyl-3-(4-methoxyphenyl)-5-methyl-4,5-dihydro-isoxazole]

inhibition at 13.4 µM ([1]; Table 2): 90.5 ± 3.1%
inhibition at 13.4 µM ([1]; Table 3): 91.4 ± 3.8%
remaining activity at 10 µM [2]: 17.4 ± 1.5%
Compound: O=[N+]([O-])c1ccc(C2=NOC3CCCCCC23)c(C(F)(F)F)c1 (centres unmarked) [Example 42a, 3-(4-Nitro-2-trifluoromethyl-phenyl)-4,5,6,7,8,8a-hexahydro-3aH-cyclohepta[d]isoxazole]

melting point: 158 to 159.2 °C
Compound: O=[N+]([O-])c1ccc(C2=NOC(Cc3ccccc3)(c3ccccc3)C2)cc1 (centres unmarked) [Example 17, 5-Benzyl-3-(4-nitrophenyl)-5-phenyl-4,5-dihydro-isoxazole]
